# Test results: article PMC4726048 (2016)
# What was measured:
# [1] = tested on: ON1 (adenosine aptamer) (DNA, aptamer) ACCTGGGGGAGTATTGCGGAGGAAGGT; assay: luminescence displacement assay (complex 1/ON1/ON2); details: 100 mM NaCl, 10 mM MgCl2, 75 mM K+, 20 mM Tris-HCl pH 7.4, 37 °C
# [2] = tested on: F21T (DNA, G4) GGGTTAGGGTTAGGGTTAGGG; assay: FRET melting; details: 0.2 μM DNA; 3 μM compound
# [3] = tested on: F10T (DNA, hairpin, HEG linker between nt 8 and 9) TATAGCTATATAGCTATAT; assay: FRET melting; details: 0.2 μM DNA; 3 μM compound
# [4] = tested on: CCR5-DEL (DNA, single strand) CTCATTTTCCATACATTAAAGATAGTCAT; assay: luminescence enhancement; details: 20 mM Tris-HCl pH 7.4; 1 μM compound, 5 μM DNA
# [5] = tested on: ON2m (DNA, single strand) AAGTTTCCGACTCCCCCAGGTGCCTTTGAA; assay: luminescence enhancement; details: ON2m used in place of ON2 in adenosine assay; 80 μM adenosine
# [6] = tested on: 5'-side loop, 5'-G3TnG3T3G3T3G3-3', n = 1 (DNA, G4) GGGTGGGTTTGGGTTTGGG; assay: luminescence enhancement; details: 1 μM compound; 2.7-fold enhancement
# [7] = tested on: 5'-side loop, 5'-G3TnG3T3G3T3G3-3', n = 15 (DNA, G4) GGGTTTTTTTTTTTTTTTGGGTTTGGGTTTGGG; assay: luminescence enhancement; details: 1 μM compound; 6.9-fold enhancement
# [8] = tested on: central loop, 5'-G3T3G3TnG3T3G3-3', n = 1 (DNA, G4) GGGTTTGGGTGGGTTTGGG; assay: luminescence enhancement; details: 1 μM compound; 2.4-fold enhancement
# [9] = tested on: central loop, 5'-G3T3G3TnG3T3G3-3', n = 15 (DNA, G4) GGGTTTGGGTTTTTTTTTTTTTTTGGGTTTGGG; assay: luminescence enhancement; details: 1 μM compound; 8.3-fold enhancement
# [10] = tested on: 3'-side loop, 5'-G3T3G3T3G3TnG3-3', n = 1 (DNA, G4) GGGTTTGGGTTTGGGTGGG; assay: luminescence enhancement; details: 1 μM compound; 2.3-fold enhancement
# [11] = tested on: 3'-side loop, 5'-G3T3G3T3G3TnG3-3', n = 15 (DNA, G4) GGGTTTGGGTTTGGGTTTTTTTTTTTTTTTGGG; assay: luminescence enhancement; details: 1 μM compound; 7.2-fold enhancement
# [12] = tested on: ON2 (DNA, G4) GGGTTTGGGACTCCCCCAGGTGGGTTTGGG; assay: G4-FID (thiazole orange displacement); details: Tris-HCl buffer; thiazole orange displaced; 0.25 μM DNA
# [13] = tested on: ds17 (DNA, duplex) CCAGTTCGTAGTAACCC/GGGTTACTACGAACTGG; assay: G4-FID (thiazole orange displacement); details: Tris-HCl buffer; thiazole orange displaced; 0.25 μM DNA; under 50% displaced at highest concentration tested
# [14] = ON2 capture strand, 200 μM highest tested
compound,measurement,setting,value
Nc1nc2c(ncn2[C@@H]2O[C@H](CO)[C@@H](O)[C@H]2O)c(=O)[nH]1,binding,[1]; [14],no
Cc1cccnc1-c1[c-]cccc1.Cc1cccnc1-c1[c-]cccc1.[Ir+3].c1ccc(-c2ccc3ccc4ccc(-c5ccccc5)nc4c3n2)cc1,ΔTm,[2],~ 7.0 °C
same,ΔTm,[3],3.0 °C
same,binding,[4],weak
same,binding,[5],weak
same,binding,[6],yes
same,binding,[7],yes
same,binding,[8],yes
same,binding,[9],yes
same,binding,[10],yes
same,binding,[11],yes
same,G4DC50,[12],7.0 µM
same,binding,[13],weak
Nc1ccn([C@@H]2O[C@H](CO)[C@@H](O)[C@H]2O)c(=O)n1,binding,[1]; [14],no
O=c1ccn([C@@H]2O[C@H](CO)[C@@H](O)[C@H]2O)c(=O)[nH]1,binding,[1]; [14],no
Nc1ncnc2c1ncn2[C@@H]1O[C@H](CO)[C@@H](O)[C@H]1O,binding,[1]; ON2 capture strand displaced,yes
